This assay concerns Methicillin-resistant Staphylococcus aureus (MRSA). Description: antimicrobial properties against MRSA (log killing). Format: cell-based. The note with it: high dose (100 μg/ml). Here is the method: FIG. 2 compares the antimicrobial properties of chitosan and hydrophobically modified chitosan, alongside ampicillin, against Methicillin-resistant Staphylococcus aureus (MRSA). Hm-chitosan at 0.5 wt % achieves a log killing of >2, whereas native chitosan (0.5 wt %) achieves a log killing of ˜1. In contrast, ampicillin at high dose (100 μg/ml) achieves only ˜0.5 log killing.

Turning to `CC1(C)S[C@@H]2[C@H](NC(=O)[C@H](N)c3ccccc3)C(=O)N2[C@H]1C(=O)O` [ampicillin], the log killing was about 0.5 log.
